Values of other authors in US20230149383A1, “QUINOLINE COMPOUNDS FOR TREATING LUNG, LIVER, AND KIDNEY DISEASES, DISORDERS, OR CONDITIONS” (Aldeyra Therapeutics, Inc., priority 2020, published 2023).

What was measured:
[1] = test system: precision-cut liver slices (PCLS); settings: addition of 4-methylpyrazole; cited from earlier work
[2] = test system: minimal change disease; settings: Hogan et al. 2013; cited from earlier work
[3] = test system: ocular inflammation; settings: Phase 2 and Phase 3 clinical trials; cited from earlier work

SMILES: Cc1cn[nH]c1 [4-methylpyrazole]
- ethanol-induced impairments (fatty liver, redox state, albumin secretion) [1]: reversed

SMILES: C[C@]12C=CC(=O)C=C1CC[C@@H]1[C@@H]2[C@@H](O)C[C@@]2(C)[C@H]1CC[C@]2(O)C(=O)CO [prednisolone]
- complete remission, share of adults with minimal change disease [2]: over 80%

SMILES: CC(C)(O)c1nc2ccc(Cl)cc2cc1N [reproxalap]
- benefit in ocular inflammation, including dry eye disease and allergic conjunctivitis [3]: beneficial
